Source: the NIST ThermoML archive (doi:10.1016/j.jct.2011.01.016)
Numbers after ± are expanded uncertainties.

Assay: xn = mol fraction of the nth substance listed
Details: 100 kPa, Liquid; for viscosity: Concentric cylinders viscometry; for mass density: Vibrating tube method

CCCCCCCCCCCCCC[P+](CCCCCC)(CCCCCC)CCCCCC.O=S(=O)([N-]S(=O)(=O)C(F)(F)F)C(F)(F)F + O
x2 = 0.088
Details	mass density [kg/m3]	viscosity [mPa·s]
298.15 K	1066.1 ± 3.2	300.01 ± 7.4
303.15 K	1062.4 ± 3.1	224.6 ± 4.7
308.15 K	1058.7 ± 3.1	170.8 ± 3
313.15 K	1055 ± 3.1	132.06 ± 2
318.15 K	1051.4 ± 3.1	103.5 ± 1.3
323.15 K	1047.7 ± 3.1	82.08 ± 0.87
328.15 K	1044 ± 3.1	65.75 ± 0.61
333.15 K	1040.4 ± 3.1	53.41 ± 0.46
338.15 K	1036.7 ± 3.1	44.23 ± 0.4
343.15 K	1033.1 ± 3.1	37.14 ± 0.33
348.15 K	1029.6 ± 3.1	31.46 ± 0.28
353.15 K	1026 ± 3	26.9 ± 0.24
358.15 K	1022.4 ± 3	23.17 ± 0.21
363.15 K	1018.8 ± 3	20.09 ± 0.18

CCCCCCCCCCCCCC[P+](CCCCCC)(CCCCCC)CCCCCC.N#C[N-]C#N [tetradecyl(trihexyl)phosphonium dicyanamide] + O
x2 = 0.496
Details	mass density [kg/m3]	viscosity [mPa·s]
298.15 K	900.7 ± 2.2	190.83 ± 3.5
303.15 K	897.6 ± 2.2	145.77 ± 2.2
308.15 K	894.7 ± 2.2	113.3 ± 1.5
313.15 K	891.7 ± 2.2	89.4 ± 0.95
318.15 K	888.7 ± 2.2	71.54 ± 0.64
323.15 K	885.7 ± 2.2	57.96 ± 0.46
328.15 K	882.7 ± 2.2	47.54 ± 0.39
333.15 K	879.8 ± 2.2	39.43 ± 0.32
338.15 K	876.8 ± 2.2	33.03 ± 0.27
343.15 K	873.8 ± 2.2	27.94 ± 0.23
348.15 K	870.9 ± 2.2	23.84 ± 0.2
353.15 K	867.9 ± 2.2	20.52 ± 0.17
358.15 K	865 ± 2.2	17.78 ± 0.15
363.15 K	862 ± 2.1	15.51 ± 0.13
